Measurements: PMC3755750 (Cancer chemotherapy and pharmacology, 2013)
Read-outs that look alike come from different tables or passages of the source.

Tests used:
[1] = tested on: P-glycoprotein (P-gp); conditions: in vitro; cited from earlier work
[2] = iv dosing; cited from earlier work
[3] = tested on: CYP2C19; conditions: human liver microsomes; cited from earlier work
[4] = cited from earlier work; for Fa, fraction absorbed / Bioavailability / Fraction of dose absorbed: mice; for Fa, fraction absorbed: fixed in the PBPK model; for Bioavailability: oral
[5] = assay type: in vivo, mice (BALB/c, CB17 SCID, tumor-bearing CB17 SCID); conditions: for Tmax: BALB/c, mouse, po; for Dose proportionality of Cmax in plasma and tissues: across mouse strains, sorafenib: all tissues except the tumor; for ka, absorption rate constant: fitted to Study#1 data, then fixed
[6] = tested on: CYP2D6; conditions: human liver microsomes; cited from earlier work
[7] = concomitant CYP3A4 inhibitor ketoconazole; cited from earlier work
[8] = tested on: CYP3A4; conditions: human liver microsomes; cited from earlier work
[9] = cited from earlier work
[10] = ref Pubchem Compound; cited from earlier work
[11] = CB17-SCID, plasma and most tissues

CNC(=O)c1cc(Oc2ccc(NC(=O)Nc3ccc(Cl)c(C(F)(F)F)c3)cc2)ccn1 [sorafenib, Sorafenib]
P-gp substrate character [1]: weak P-glycoprotein (P-gp) substrate
Partition coefficient K for brain, calculated [2]: 0.02
CYP2C19 inhibition [3]: moderate inhibitor
Dose proportionality in Cmax and AUC ([4]; CD-1 mice, at the doses tested): dose proportionality
Terminal half-life ([4]; CD-1 mice): 3.2 to 4.2 h
Tmax ([4]; CD-1 mice): 1 to 1.6 h
Fa, fraction absorbed [4]: 0.920
Bioavailability [4]: 80%
Fraction of dose absorbed [4]: 92%
Tmax ([5]; CB17-SCID, GI tract): 1 h
Tmax [5, 11]: 6 h
Kf, partition coefficient adipose ([5]; PBPK population mean, mice): 0.624
Kmu, partition coefficient muscle ([5]; PBPK population mean, mice): 0.356
Ksk, partition coefficient skin ([5]; PBPK population mean, mice): 0.361
Clint, hepatic clearance ([5]; PBPK population mean, oral dosing, mice): 6.64 mL/h
Dose proportionality of Cmax in plasma and tissues [5]: dose-proportional
ka, absorption rate constant [5]: 3.83 h⁻¹
Time detected in plasma and all tissues after the last dose ([5]; oral dosing): up to 24 h
Increase in tumor exposure ([5]; twofold increase in sorafenib dose): tenfold
CYP2D6 inhibition [6]: moderate inhibitor
Change in Cmax and exposure, adverse events [7]: lack of clinically relevant adverse events or change in Cmax and exposure
CYP3A4 inhibition [8]: moderate inhibitor

CO[C@H]1C[C@@H]2CC[C@@H](C)[C@@](O)(O2)C(=O)C(=O)N2CCCC[C@H]2C(=O)O[C@H]([C@H](C)C[C@@H]2CC[C@@H](OCCO)[C@H](OC)C2)CC(=O)[C@H](C)/C=C(\C)[C@@H](O)[C@@H](OC)C(=O)[C@H](C)C[C@H](C)/C=C/C=C/C=C/1C [everolimus, Everolimus]
Increase of everolimus AUC ([9]; concomitant strong CYP inhibitor ketoconazole, humans): 15 fold
Increase of everolimus AUC ([9]; moderate CYP inhibitors erythromycin, verapamil, cyclosporine): 2.7–4.5 fold
Change in everolimus AUC ([9]; weak inhibitor atorvastatin): no change
Fa, fraction absorbed [4]: 0.12
Bioavailability [4]: 5%
Fraction of dose absorbed [4]: 12%
Tmax [5, 11]: 1 h
Tmax ([5]; adipose and skin, 5 mg/kg): ≤ 6 h
Kbr, partition coefficient brain ([5]; PBPK population mean, mice): 0.018
Kmu, partition coefficient muscle ([5]; PBPK population mean, mice): 0.105
Ksp, partition coefficient spleen ([5]; PBPK population mean, mice): 0.361
Dose proportionality of Cmax in plasma and tissues [5]: dose-proportional
ka, absorption rate constant [5]: 9.45 h⁻¹
Time detected in plasma and all tissues after the last dose ([5]; oral dosing): up to 24 h
Ktu, partition coefficient tumor ([5]; patient-derived primary pancreatic adenocarcinoma explants in SCID mice): 0.480
PK (AUC) given alone versus in combination ([5]; student's t test of AUCs from each study, mice): no statistically significant difference
log P [10]: 5.9
